Data published in patent publication EP1500391A1, “Therapeutic use of bicycloheptane derivatives” (NEURO3D, priority 2003, dated 2005).
Like-named read-outs stand apart in the source and are kept apart here.

Experiments:
[1] = target: human dopamine D2S receptor (Homo sapiens, UniProt P14416); assay: D2 radioligand binding assay ([3H]spiperone); conditions: read-out: %inhibition D2
[2] = target: T1, human 5-HT2A receptor (Homo sapiens, UniProt P28223); assay: 5HT2a radioligand binding assay ([3H]ketanserin); conditions: inhibition of control specific binding; at 1µM (concentration printed only in head of Cpd A); human recombinant
T1 construct: expressed in transfected cells; host or cells: HEK-293 cells

[3] = system: non-selective sigma receptor; assay: σ radioligand binding assay ([3H]DTG); conditions: inhibition of control specific binding; at 1µM (concentration printed only in head of Cpd A); rat cerebral cortex
[4] = target: human 5-HT6 receptor (Homo sapiens, UniProt P50406); assay: 5HT6 radioligand binding assay ([3H] LSD); conditions: read-out: %inhibition 5HT6
Method: 5HT6 ASSAY : Evaluation of the affinity of compounds for the human 5-HT6 receptor in transfected HEK 293 cells determined in a radioligand binding assay. Cell membrane homogenates (15-20 µg protein) were incubated for 60 min at 37°C with 2 nM [^3H] LSD in the absence or presence of the test compound in a buffer containing 50 mM Tris-HCl (pH 7.4), 10 mM MgCl2 and 0.5 mM EDTA. Nonspecific binding was determined in the presence of 100 µM 5-HT. Following incubation, the samples were filtered rapidly under vacuum through glass fiber filters (GF/B, Packard) presoaked with 0.3% PEI and rinsed several times with ice-cold 50 mM Tris-HCl using a 96-sample cell harvester (Unifilter, Packard). The filters were dried then counted for radioactivity in a scintillation counter (Topcount, Packard) using a scintillation cocktail (Microscint 0, Packard).
The specific ligand binding to the receptor is defined as the difference between the total binding and the non specific binding determined in the presence of an excess of unlabelled ligand. The results are expressed as a percentage of control specific binding and as a percentage inhibition of control specific binding obtained in the presence of the compounds.

[5] = target: human dopamine D3 receptor (Homo sapiens, UniProt P35462); assay: D3 radioligand binding assay ([3H]spiperone); conditions: read-out: %inhibition D3
Method: Nonspecific binding was determined in the presence of 10 µM (+)butaclamol. Following incubation, the samples were filtered rapidly under vacuum through glass fiber filters (GF/B, Packard) presoaked with 0.3% PEI and rinsed several times with ice-cold 50 mM Tris-HCl using a 96-sample cell harvester (Unifilter, Packard). The filters were dried then counted for radioactivity in a scintillation counter (Topcount, Packard) using a scintillation cocktail (Microscint 0, Packard). The specific ligand binding to the receptor is defined as the difference between the total binding and the non specific binding determined in the presence of an excess of unlabelled ligand. The results are expressed as a percentage of control specific binding and as a percentage inhibition of control specific binding obtained in the presence of the compounds.

[6] = target: T2, human 5-HT2C receptor (Homo sapiens, UniProt P28335); assay: 5HT2c radioligand binding assay ([3H]mesulergine); conditions: inhibition of control specific binding; at 1µM (concentration printed only in head of Cpd A); transfected CHO cells
T2 construct: expressed in transfected cells; host or cells: CHO cells
T2 sequence (P28335 33-458): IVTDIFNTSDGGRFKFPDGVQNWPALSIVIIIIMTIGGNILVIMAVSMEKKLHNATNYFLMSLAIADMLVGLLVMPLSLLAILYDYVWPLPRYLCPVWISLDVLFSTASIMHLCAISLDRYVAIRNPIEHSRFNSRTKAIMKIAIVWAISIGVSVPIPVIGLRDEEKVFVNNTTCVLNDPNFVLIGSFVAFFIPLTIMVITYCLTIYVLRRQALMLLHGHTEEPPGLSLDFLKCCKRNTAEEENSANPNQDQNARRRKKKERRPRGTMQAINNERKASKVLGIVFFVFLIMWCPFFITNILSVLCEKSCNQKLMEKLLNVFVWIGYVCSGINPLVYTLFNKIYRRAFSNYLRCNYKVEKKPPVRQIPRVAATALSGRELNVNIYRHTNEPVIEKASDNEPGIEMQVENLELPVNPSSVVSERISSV

[7] = inhibition of control specific binding, at 1µM (concentration printed only in head of Cpd A), transfected CHO cells

T1 sequence (P28223 whole entry): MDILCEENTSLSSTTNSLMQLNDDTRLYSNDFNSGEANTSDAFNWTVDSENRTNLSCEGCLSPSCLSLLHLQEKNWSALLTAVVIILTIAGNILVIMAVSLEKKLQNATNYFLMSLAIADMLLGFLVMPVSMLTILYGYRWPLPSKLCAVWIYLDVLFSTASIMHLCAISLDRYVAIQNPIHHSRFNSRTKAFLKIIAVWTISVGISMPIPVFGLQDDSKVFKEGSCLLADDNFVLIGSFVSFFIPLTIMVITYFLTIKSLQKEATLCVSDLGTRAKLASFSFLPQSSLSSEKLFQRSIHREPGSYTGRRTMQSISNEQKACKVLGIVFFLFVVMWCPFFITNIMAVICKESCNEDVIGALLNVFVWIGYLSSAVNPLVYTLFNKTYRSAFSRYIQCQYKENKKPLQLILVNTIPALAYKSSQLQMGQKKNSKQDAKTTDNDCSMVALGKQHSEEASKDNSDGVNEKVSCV
Chain of human dopamine D2S receptor (P14416 1-414 isoform P14416-2): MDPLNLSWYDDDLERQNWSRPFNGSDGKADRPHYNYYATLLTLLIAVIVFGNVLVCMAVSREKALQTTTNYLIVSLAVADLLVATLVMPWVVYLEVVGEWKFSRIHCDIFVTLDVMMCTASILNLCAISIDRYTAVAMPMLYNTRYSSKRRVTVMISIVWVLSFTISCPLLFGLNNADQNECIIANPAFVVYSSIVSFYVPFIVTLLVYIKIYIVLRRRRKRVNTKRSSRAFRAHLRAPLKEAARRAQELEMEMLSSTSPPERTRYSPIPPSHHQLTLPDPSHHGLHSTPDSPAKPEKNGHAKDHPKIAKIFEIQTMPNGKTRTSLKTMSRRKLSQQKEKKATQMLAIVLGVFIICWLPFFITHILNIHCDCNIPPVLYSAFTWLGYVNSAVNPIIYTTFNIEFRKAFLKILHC
Chain of human dopamine D3 receptor (P35462 whole entry): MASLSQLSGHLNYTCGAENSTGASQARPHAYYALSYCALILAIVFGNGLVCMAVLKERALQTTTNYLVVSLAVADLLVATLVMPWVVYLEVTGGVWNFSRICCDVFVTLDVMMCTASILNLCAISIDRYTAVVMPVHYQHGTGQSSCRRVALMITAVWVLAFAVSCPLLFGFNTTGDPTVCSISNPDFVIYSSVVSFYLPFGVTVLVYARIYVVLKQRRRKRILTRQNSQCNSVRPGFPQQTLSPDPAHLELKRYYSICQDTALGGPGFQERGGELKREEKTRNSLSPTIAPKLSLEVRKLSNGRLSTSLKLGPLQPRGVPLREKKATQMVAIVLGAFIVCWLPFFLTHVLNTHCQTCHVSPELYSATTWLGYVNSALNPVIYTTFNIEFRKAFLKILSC
Chain of human 5-HT6 receptor (P50406 whole entry): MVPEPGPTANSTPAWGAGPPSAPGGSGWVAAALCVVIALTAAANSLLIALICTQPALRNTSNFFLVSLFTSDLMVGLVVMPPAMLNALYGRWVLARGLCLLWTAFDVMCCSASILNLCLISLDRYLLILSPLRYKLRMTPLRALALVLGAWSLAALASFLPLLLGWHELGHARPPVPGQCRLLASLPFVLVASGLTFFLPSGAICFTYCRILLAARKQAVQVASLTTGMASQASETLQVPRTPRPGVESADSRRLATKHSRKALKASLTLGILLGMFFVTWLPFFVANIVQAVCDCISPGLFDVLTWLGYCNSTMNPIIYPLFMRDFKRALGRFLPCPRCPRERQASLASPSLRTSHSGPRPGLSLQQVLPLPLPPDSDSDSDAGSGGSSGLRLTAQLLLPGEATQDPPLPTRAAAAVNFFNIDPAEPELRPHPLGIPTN

SMILES	inhibition at 1 µM [1] [%]	inhibition at 1 µM [2] [%]	%inhibition σ [3] [%]	inhibition at 1 µM [4] [%]	inhibition at 1 µM [5] [%]	inhibition at 1 µM [6] [%]	inhibition at 1 µM [1, 7] [%]	inhibition at 1 µM [5, 7] [%]
CN(C)CCO[C@@]1(c2ccccc2)C[C@@H]2CC[C@@]1(C)C2(C)C [Cpd A, (1S,2R,4S)-(+)-2-[N,N-(dimethylaminoethoxy)]-2-phenyl-1,7,7-trimethyl-bicyclo[2.2.1]heptane]	29	93	56	44	32	79	–	–
CN(C)CCO[C@]1(c2ccccc2)C[C@H]2CC[C@]1(C)C2(C)C [Cpd B, (1R,2S,4R)-(-)-2-[N,N-(dimethylaminoethoxy)]-2-phenyl-1,7,7-trimethyl-bicyclo[2.2.1]heptane]	74	99	72	88	89	99	–	–
CNCCO[C@]1(c2ccccc2)C[C@H]2CC[C@]1(C)C2(C)C [Cpd D, (1R,2S,4R)-(-)-2-methylaminoethoxy-2-phenyl-1,7,7-trimethyl-bicyclo[2.2.1]heptane]	–	98	–	89	–	97	57	81
CNCCO[C@@]1(c2ccccc2)C[C@@H]2CC[C@@]1(C)C2(C)C [Cpd C, (1S,2R,4S)-(+)-2-methylaminoethoxy-2-phenyl-1,7,7-trimethyl-bicyclo[2.2.1]heptane]	–	89	–	36	–	65	10	24
